Experimental data reported in ChEMBL document CHEMBL4665629, “An optimised series of substituted N-phenylpyrrolamides as DNA gyrase B inhibitors” (Eur J Med Chem, 2019).
≈ marks a conversion by molar mass, not a printed value.

Experiments:
Klebsiella pneumoniae [1] = assay: Antibacterial activity against wild type Klebsiella pneumoniae ATCC 10031 assessed as minimum inhibitory concentration required for >=90% inhibition of bacterial growth in presence of 10 ug/ml phenylalanine-arginine beta-naphthamide; type: functional
Klebsiella pneumoniae [2] = assay: Antibacterial activity against Klebsiella pneumoniae ATCC 700603 assessed as bacterial growth inhibition at 50 uM incubated for 24 hrs by CLSI protocol based broth microdilution assay relative to control; type: functional
Escherichia coli [3] = assay: Antibacterial activity against Escherichia coli MG1655 harboring […]/D87N mutant assessed as minimum inhibitory concentration required for >=90% inhibition of bacterial growth in presence of 50 ug/ml phenylalanine-arginine beta-naphthylamide; type: functional
Enterococcus faecium [4] = assay: Antibacterial activity against vancomycin-resistant Enterococcus faecium ATCC 700221 assessed as minimum inhibitory concentration required for >=90% inhibition of bacterial growth by CLSI protocol based broth microdilution assay; type: functional
Klebsiella pneumoniae [5] = assay: Antibacterial activity against wild type Klebsiella pneumoniae ATCC 10031 harboring GyrA S83F/D87G mutant assessed as minimum inhibitory concentration required for >=90% inhibition of bacterial growth in presence of 10 ug/ml phenylalanine-arginine beta-naphthamide; type: functional
Escherichia coli [6] = assay: Antibacterial activity against Escherichia coli MG1655 harboring […]/D87N and ParC S80I mutants assessed as minimum inhibitory concentration required for >=90% inhibition of bacterial growth in presence of 50 ug/ml phenylalanine-arginine beta-naphthylamide; type: functional
Klebsiella pneumoniae [7] = assay: Antibacterial activity against wild type Klebsiella pneumoniae ATCC 10031 harboring GyrA S83Y mutant assessed as minimum inhibitory concentration required for >=90% inhibition of bacterial growth in presence of 10 ug/ml phenylalanine-arginine beta-naphthamide; type: functional
Enterococcus faecium [8] = assay: Antibacterial activity against Enterococcus faecium ATCC 35667 assessed as bacterial growth inhibition at 50 uM incubated for 24 hrs by CLSI protocol based broth microdilution assay relative to control; type: functional
Staphylococcus aureus [9] = assay: Antibacterial activity against Staphylococcus aureus ATCC 29213 assessed as minimum inhibitory concentration required for >=90% inhibition of bacterial growth by CLSI protocol based broth microdilution assay; type: functional
Escherichia coli [10] = assay: Antibacterial activity against outer membrane impaired Escherichia coli JD17464 harboring lpxC mutant assessed as bacterial growth inhibition at 50 uM incubated for 24 hrs by CLSI protocol based broth microdilution assay relative to control; type: functional
Enterococcus faecium [11] = assay: Antibacterial activity against Enterococcus faecium ATCC 35667 assessed as minimum inhibitory concentration required for >=90% inhibition of bacterial growth by CLSI protocol based broth microdilution assay; type: functional
Acinetobacter baumannii = assay: Antibacterial activity against Acinetobacter baumannii ATCC 19606 assessed as bacterial growth inhibition at 50 uM incubated for 24 hrs by CLSI protocol based broth microdilution assay relative to control; type: functional; conditions: ATCC 19606 = CIP 70.34 = JCM 6841
Staphylococcus aureus [12] = assay: Antibacterial activity against […] Staphylococcus aureus ATCC 25923 assessed as minimum inhibitory concentration required for >=90% inhibition of bacterial growth by CLSI protocol based broth microdilution assay; type: functional
Staphylococcus aureus [13] = assay: Antibacterial activity against Staphylococcus aureus ATCC 29213 assessed as bacterial growth inhibition at 50 uM incubated for 24 hrs by CLSI protocol based broth microdilution assay relative to control; type: functional
DNA gyrase = DNA gyrase (Escherichia coli, UniProt P0AES4+P0AES6); assay: Inhibition of Escherichia coli DNA gyrase using biotinylated oligonucleotide as substrate incubated for 30 mins in presence of ATP by fluorescence-based microplate reader assay; type: protein-complex assay
Klebsiella pneumoniae [14] = assay: Antibacterial activity against wild type Klebsiella pneumoniae ATCC 10031 harboring GyrA S83L mutant assessed as minimum inhibitory concentration required for >=90% inhibition of bacterial growth in presence of 10 ug/ml phenylalanine-arginine beta-naphthamide; type: functional
Pseudomonas aeruginosa [15] = assay: Antibacterial activity against Pseudomonas aeruginosa ATCC 27853 assessed as minimum inhibitory concentration required for >=90% inhibition of bacterial growth in presence of phenylalanine-arginine beta-naphthylamide by CLSI protocol based broth microdilution assay; type: functional
[16] = molecular target: Topoisomerase IV (Staphylococcus aureus) (UniProt P0C1U9+P0C1S7); assay: Inhibition of Staphylococcus aureus DNA topoisomerase 4 assessed as residual activity at 1 uM using biotinylated oligonucleotide as substrate incubated for 30 mins in presence of ATP by fluorescence-based microplate reader assay relative to control; type: protein-complex assay
Escherichia coli [17] = assay: Antibacterial activity against Escherichia coli MG1655 assessed as minimum inhibitory concentration required for >=90% inhibition of bacterial growth in presence of phenylalanine-arginine beta-naphthylamide by CLSI protocol based broth microdilution assay; type: functional
Escherichia coli [18] = assay: Antibacterial activity against wild type Escherichia coli MG1655 assessed as minimum inhibitory concentration required for >=90% inhibition of bacterial growth in presence of 50 ug/ml phenylalanine-arginine beta-naphthylamide; type: functional
Escherichia coli [19] = assay: Antibacterial activity against Escherichia coli ATCC 25922 assessed as minimum inhibitory concentration required for >=90% inhibition of bacterial growth in presence of phenylalanine-arginine beta-naphthylamide by CLSI protocol based broth microdilution assay; type: functional
Klebsiella pneumoniae [20] = assay: Antibacterial activity against wild type Klebsiella pneumoniae ATCC 10031 harboring GyrA S83F/D87G and ParC S80I mutants assessed as minimum inhibitory concentration required for >=90% inhibition of bacterial growth in presence of 10 ug/ml phenylalanine-arginine beta-naphthamide; type: functional
Staphylococcus aureus [21] = assay: Antibacterial activity against methicillin-resistant and vancomycin-intermediate Staphylococcus aureus ATCC 700699 assessed as minimum inhibitory concentration required for >=90% inhibition of bacterial growth by CLSI protocol based broth microdilution assay; type: functional
Klebsiella pneumoniae [22] = assay: Antibacterial activity against Klebsiella pneumoniae ATCC 10031 assessed as minimum inhibitory concentration required for >=90% inhibition of bacterial growth in presence of phenylalanine-arginine beta-naphthylamide by CLSI protocol based broth microdilution assay; type: functional
Escherichia coli [23] = assay: Antibacterial activity against Escherichia coli MG1655 harboring GyrB R136C mutant assessed as minimum inhibitory concentration required for >=90% inhibition of bacterial growth in presence of 50 ug/ml phenylalanine-arginine beta-naphthylamide; type: functional
Pseudomonas aeruginosa [24] = assay: Antibacterial activity against Pseudomonas aeruginosa ATCC 27853 assessed as bacterial growth inhibition at 50 uM incubated for 24 hrs by CLSI protocol based broth microdilution assay relative to control; type: functional
Klebsiella aerogenes = assay: Antibacterial activity against Enterobacter aerogenes ATCC 13408 assessed as bacterial growth inhibition at 50 uM incubated for 24 hrs by CLSI protocol based broth microdilution assay relative to control; type: functional
Escherichia coli [25] = assay: Antibacterial activity against Escherichia coli ATCC 25922 assessed as minimum inhibitory concentration required for >=90% inhibition of bacterial growth by CLSI protocol based broth microdilution assay; type: functional
Enterococcus faecalis = assay: Antibacterial activity against Enterococcus faecalis ATCC 29212 assessed as minimum inhibitory concentration required for >=90% inhibition of bacterial growth by CLSI protocol based broth microdilution assay; type: functional
Shigella flexneri = assay: Antibacterial activity against Shigella flexneri HNCMB 20018 assessed as minimum inhibitory concentration required for >=90% inhibition of bacterial growth in presence of phenylalanine-arginine beta-naphthylamide by CLSI protocol based broth microdilution assay; type: functional

CCn1cc(C(=O)O)c(=O)c2ccc(NC(=O)c3[nH]c(C)c(Cl)c3Cl)cc21
MIC (Klebsiella pneumoniae [1]): 1.2 µM | inhibition at 50 µM (Klebsiella pneumoniae [2]): 7% | MIC (Escherichia coli [3]): 2.5 µM | MIC (Enterococcus faecium [4]): 0.72 µM (≈ 0.294 µg/mL) | MIC (Klebsiella pneumoniae [5]): 2.5 µM | MIC (Escherichia coli [6]): 2.5 µM | MIC (Klebsiella pneumoniae [7]): 1.2 µM | inhibition at 50 µM (Enterococcus faecium [8]): 97% | MIC (Staphylococcus aureus [9]): 0.78 µM (≈ 0.318 µg/mL) | inhibition at 50 µM (Escherichia coli [10]): 11% | MIC (Enterococcus faecium [11]): 1.56 µM (≈ 0.637 µg/mL) | inhibition at 50 µM (Acinetobacter baumannii): 2% | MIC (Staphylococcus aureus [12]): 2.5 µM (≈ 1.02 µg/mL) | inhibition at 50 µM (Staphylococcus aureus [13]): 100% | IC50 (DNA gyrase): 1400 nM | MIC (Klebsiella pneumoniae [14]): 1.2 µM | MIC (Pseudomonas aeruginosa [15]): > 32 µM | Activity [16]: 100% | MIC (Escherichia coli [17]): 2.5 µM | MIC (Escherichia coli [18]): 2.5 µM | MIC (Escherichia coli [19]): 2.3 µM | MIC (Klebsiella pneumoniae [20]): 1.2 µM | MIC (Staphylococcus aureus [21]): 2.5 µM (≈ 1.02 µg/mL) | MIC (Klebsiella pneumoniae [22]): > 32 µM | MIC (Escherichia coli [23]): 2.5 µM | inhibition at 50 µM (Pseudomonas aeruginosa [24]): -5% | inhibition at 50 µM (Klebsiella aerogenes): 9% | MIC (Escherichia coli [25]): > 32 µM | MIC (Enterococcus faecalis): 1.56 µM (≈ 0.637 µg/mL) | MIC (Shigella flexneri): > 32 µM
